Measurements published in PubChem BioAssay AID540252 (Sanford-Burnham Center for Chemical Genomics, 2011).
Calls of active or inactive are those of the source. How the calls were made is not given here.

Target: glucose-6-phosphate dehydrogenase-6-phosphogluconolactonase (Plasmodium falciparum 3D7)
Experiment: PfG6PD enzyme inhibitors, direct NADPH readout, dose response, orthogonal assay, biochemical, end-point NADPH detection (AID 540252)
Details: purified PfG6PD enzyme

## COc1cc(CNc2ccc(N3CCCC3)cc2)cc(Cl)c1OC
  IC50: > 80 µM (inactive)

## Cc1ccc(NC(=O)c2cc(N3C(=O)C=CC3=O)ccc2N2CCOCC2)cc1
  IC50: > 80 µM (inactive)

## CCn1c([N+](=O)[O-])nc2c1c(=O)[nH]c(=O)n2C
  IC50: > 80 µM (inactive)

## COc1ccc(Nc2cc(C)c3c(O)cccc3n2)cc1
  IC50: > 80 µM (inactive)

## O=C(CNC(=O)c1cccs1)NCC(=O)OCC(=O)c1ccc([N+](=O)[O-])cc1
  IC50: 67.9 µM

## c1nc(SSc2ncnc3nc[nH]c23)c2[nH]cnc2n1
  IC50: 28.7 µM

## Cc1nc2ccccn2c1-c1ccnn1S(=O)(=O)c1ccc(F)cc1
  IC50: > 80 µM (inactive)

## N#Cc1ccc2c(=O)n(-c3ccccc3)sc2c1
  IC50: > 80 µM (inactive)

## O=C1C=CC(=O)N1c1ccc(N2CCCCC2)cc1
  IC50: 38 µM

## c1ccc(-c2cn3c(n2)CCc2ccc4cccnc4c2-3)cc1
  IC50: > 80 µM (inactive)

## COCCNC(=S)Nc1ccc(N2CCOCC2)c(S(=O)(=O)Nc2ccc(Cl)cc2)c1
  IC50: > 80 µM (inactive)

## NS(=O)(=O)c1ccc(-c2ccc(C=C3C(=O)NC(=O)NC3=O)o2)cc1
  IC50: > 80 µM (inactive)

## CC(C)Cn1c([N+](=O)[O-])nc2c1c(=O)[nH]c(=O)n2C
  IC50: > 80 µM (inactive)

## COc1cc(NCc2ccccc2)c2ncn(Cc3ccccc3)c2c1
  IC50: > 80 µM (inactive)

## O=C(CSc1nc2ccc(Cl)cc2[nH]1)NC1CCCc2ccccc21 (stereo not given)
  IC50: > 80 µM (inactive)

## O=c1c2ccc(F)cc2sn1-c1ccccc1
  IC50: 14.5 µM

## CCN1CCN(c2nc(C)nc3c2sc(=S)n3C)CC1
  IC50: 43.7 µM

## O=c1[nH]c2ccc(NCc3ccccc3OCc3ccc(Cl)cc3)cc2[nH]1
  IC50: > 80 µM (inactive)

## COc1cc(SSc2cc(OC)cc([N+](=O)[O-])c2N)c(N)c([N+](=O)[O-])c1
  IC50: 13.1 µM

## Cn1c(=O)[nH]c(=O)c2c1nc(SCCN1CCCCC1)n2CCCc1ccccc1
  IC50: > 80 µM (inactive)

## C[n+]1c(-c2ccccc2)cc2c(=Cc3ccc([N+](=O)[O-])cc3)c3ccccc3n21
  IC50: > 80 µM (inactive)

## Cn1c2ccccc2c2ccc3c(c21)C(=O)C=CC3=O
  IC50: > 80 µM (inactive)

## Cc1ccc(S(=O)(=O)Oc2cccc(/C=N/Nc3ccc(C(=O)O)cc3)c2)cc1
  IC50: > 80 µM (inactive)

## Cc1ccc(Nc2cc(C)c(O)c(C)c2)cc1
  IC50: > 80 µM (inactive)

## O=C(Nc1nnc(S(=O)(=O)N2CCOCC2)s1)c1ccc(F)cc1
  IC50: > 80 µM (inactive)

## Nc1c(O)cccc1C(=O)O
  IC50: > 80 µM (inactive)

## Cc1nnc(N/N=C/c2ccc(-c3ccccc3F)o2)n1N
  IC50: > 80 µM (inactive)

## CCc1cc(-c2n[nH]c(C)c2-c2ccccc2Cl)c(O)cc1OC
  IC50: > 80 µM (inactive)

## Cc1ccc(-n2sc3cc(F)ccc3c2=O)c(C)c1
  IC50: 12.2 µM

## Cc1cccc(NC2=C(NC(=O)c3ccccc3)C(=O)c3ccccc3C2=O)c1
  IC50: > 80 µM (inactive)

## O=S(=O)(Nc1c(O)ccc2ccccc12)c1ccccc1
  IC50: > 80 µM (inactive)

## COc1ccc(-n2c(=S)[nH]c3c(sc(=S)n3-c3ccccc3)c2=O)c(OC)c1
  IC50: 58 µM

## COCc1cc(=O)n2[nH]c(C(C)(C)C)cc2n1
  IC50: > 80 µM (inactive)

## COC1=C(N)C(=O)c2nc(C)ccc2C1=O
  IC50: > 80 µM (inactive)

## COc1cc(N)c2ncsc2c1
  IC50: > 80 µM (inactive)

## O=C(Nc1nc(-c2ccncc2)cs1)C1COc2ccccc2O1 (stereo not given)
  IC50: > 80 µM (inactive)

## CC(C)c1cc2c(c(O)c1O)[C@@]13CCCC(C)(C)C1CC2OC3=O (stereo not given in full)
  IC50: > 80 µM (inactive)

## [O-]/[N+](=C\c1ccco1)c1ccc(Cl)cc1
  IC50: > 80 µM (inactive)

## COc1ccc(CCn2c(NN=C(C)C)nc3c2c(=O)[nH]c(=O)n3C)cc1
  IC50: > 80 µM (inactive)

## Cc1cc(C)c2c(=O)n(CC(=O)N3CCC(N4CCCCC4)CC3)sc2n1
  IC50: > 80 µM (inactive)

## CCN1CCN(C(=S)c2ccc(O)cc2)CC1
  IC50: > 80 µM (inactive)

## Cc1cc(C)c2sc(NC(=O)C3=COCCO3)nc2c1
  IC50: > 80 µM (inactive)

## COC(=O)CCC(=O)OC1(C)C(=O)C2=CN(c3ccccc3)C(c3ccc(OC)cc3)=CC2=C(Br)C1=O (stereo not given)
  IC50: > 80 µM (inactive)

## O=C(Nc1ccc(N2CCCC2)cc1)c1cccc(-c2cc3ccccc3oc2=O)c1
  IC50: > 80 µM (inactive)

## COC(=O)c1ccccc1NC1=C/C(=N\S(=O)(=O)c2cccs2)c2ccccc2C1=O
  IC50: > 80 µM (inactive)

## CCN1/C(=C/C=C/C=C/C=C/c2sc3ccccc3[n+]2CC)Sc2ccccc21
  IC50: > 80 µM (inactive)

## O=c1c2ccccc2sn1-c1ccccc1F
  IC50: 14.9 µM

## O=c1[nH]c2ccccc2n2c(-c3ccccc3)nnc12
  IC50: > 80 µM (inactive)

## Cc1ccc(/C=C/C(=O)NC2CCCCCCC2)o1
  IC50: > 80 µM (inactive)

## COc1ccc(OCc2nnc3n2N=C(c2ccccc2)C(CC(=O)O)S3)cc1 (stereo not given)
  IC50: > 80 µM (inactive)

## CN(C)c1cccc2c1c(NC(=O)c1ccc(F)cc1)nn2C
  IC50: > 80 µM (inactive)

## COc1cc(NC(C)CCc2ccccc2)cc(OC)c1OC (stereo not given)
  IC50: > 80 µM (inactive)

## O=c1c2ccccc2[se]n1-c1ccccc1
  IC50: 13.5 µM

## CC1=CC(=NOC(=O)/C=C/c2ccccc2)C=C(C)C1=O
  IC50: > 80 µM (inactive)

## CC1CCc2[nH]c3ccc(C(=O)N(C)CC(=O)Nc4ccccc4C(F)(F)F)cc3c2C1 (stereo not given)
  IC50: > 80 µM (inactive)

## COC(=O)[C@H](CCSC)NC(=O)c1cc2c(cn1)[nH]c1ccccc12
  IC50: > 80 µM (inactive)

## O=c1c2ccccc2sn1-c1ccc(Cl)cc1Cl
  IC50: 16.9 µM

## O=C(NC1=CC(=O)c2ccccc2C1=O)c1ccccc1
  IC50: > 80 µM (inactive)

## Cc1ccc(N2CC(C(=O)OCC(=O)c3ccc([N+](=O)[O-])cc3)CC2=O)cc1 (stereo not given)
  IC50: 50.9 µM

## O=C1NC(=S)NC(=O)C1=Cc1ccc(Br)s1
  IC50: > 80 µM (inactive)

## Cc1ccc(/C=C/C(=O)NCCc2cccc(Cl)c2)o1
  IC50: > 80 µM (inactive)

## Cc1ccc(S(=O)(=O)SCCCSS(=O)(=O)c2ccc(C)cc2)cc1
  IC50: 38.8 µM

## C#CCCc1cscc1/C=[N+](\[O-])c1ccc(C(=O)OCC)cc1
  IC50: > 80 µM (inactive)

## COc1cc(NCc2ccccc2O)c2ncccc2c1
  IC50: > 80 µM (inactive)

## CCOC(=O)c1c2ccc(OCC(=O)NN)cc2n2ccccc12
  IC50: > 80 µM (inactive)

## O=C1C(c2cc(=O)c3ccccc3[nH]2)=C(O)c2ccccc21
  IC50: > 80 µM (inactive)

## O=[N+]([O-])c1c(NCCO)cc(Sc2nc3ccccc3s2)c2nonc12
  IC50: > 80 µM (inactive)

## Cc1ccc(-c2csc(NC(=O)c3ccc(Br)cc3)c2C(=O)O)cc1
  IC50: > 80 µM (inactive)

## CC1=NOC(=O)/C1=C\c1ccc(-c2ccccc2Br)o1
  IC50: > 80 µM (inactive)

## COC(=O)[C@H](C)NC(=O)c1cc2c(cn1)[nH]c1ccccc12
  IC50: > 80 µM (inactive)

## CC(=O)Nc1ccc2c(c1)Cc1cc(N3C(=O)C=CC3=O)ccc1-2
  IC50: 23.7 µM

## CC1(C)CC2(CC(c3ccccc3F)c3ccc(O)c(O)c3O2)NC(=S)N1 (stereo not given)
  IC50: 32.1 µM

## CS(=O)(=O)c1ccc(N)c(SSc2cc(S(C)(=O)=O)ccc2N)c1
  IC50: 17.6 µM

## C/C(Cn1nnc([N+](=O)[O-])n1)=N\NC(=O)c1ccc(O)cc1
  IC50: > 80 µM (inactive)

## CCc1ccc(S(=O)(=O)Nc2cc(SCC(=O)O)c(O)c3ccccc23)cc1
  IC50: > 80 µM (inactive)
